In ChEMBL document CHEMBL1201862, “PubChem BioAssay data set” (2004):
Calls of active or inactive are those of the source.

Key:
[1] = biological target: Mu-type opioid receptor (Homo sapiens, UniProt P35372); assay type: functional, cell-based;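 also: U2OS cells with beta-arrestin recruitment to OPRM1 by beta-gal complementation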
[2] = biological target: 5-hydroxytryptamine receptor 2A (Mus musculus, UniProt P35363); assay type: functional, cell-based;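 also: CHO-K1 cells with tagged receptor and beta-arrestin; agonist potency measured as compound-induced activation of the receptor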
Chain of 5-hydroxytryptamine receptor 2A (P35363 whole entry): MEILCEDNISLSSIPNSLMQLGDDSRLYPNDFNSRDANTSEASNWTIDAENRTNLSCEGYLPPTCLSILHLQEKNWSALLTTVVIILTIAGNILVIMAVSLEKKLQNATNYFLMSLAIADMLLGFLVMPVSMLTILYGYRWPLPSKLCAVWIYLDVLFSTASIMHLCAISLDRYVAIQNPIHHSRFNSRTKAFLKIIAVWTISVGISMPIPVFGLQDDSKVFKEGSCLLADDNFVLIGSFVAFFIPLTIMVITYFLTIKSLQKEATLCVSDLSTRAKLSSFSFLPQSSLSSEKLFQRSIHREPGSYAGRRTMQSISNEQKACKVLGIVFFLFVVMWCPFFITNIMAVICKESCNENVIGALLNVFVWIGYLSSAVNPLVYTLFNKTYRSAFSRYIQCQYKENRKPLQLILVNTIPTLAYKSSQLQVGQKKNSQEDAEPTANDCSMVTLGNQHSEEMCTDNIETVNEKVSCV

[3] = biological target: NAD-dependent protein deacylase sirtuin-5, mitochondrial (Homo sapiens, UniProt Q9NXA8); assay: sirtuin-5 deacylation blockers, concentration series – biochemical, fluorescence imaging, cherry-pick, set 5, dose response (AID 720591);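 also: desuccinylation of succinyl peptide AMC substrate read as fluorescence after trypsin release; potency of inhibitors that lower fluorescence and may act on trypsin instead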
Chain of NAD-dependent protein deacylase sirtuin-5, mitochondrial (Q9NXA8 whole entry): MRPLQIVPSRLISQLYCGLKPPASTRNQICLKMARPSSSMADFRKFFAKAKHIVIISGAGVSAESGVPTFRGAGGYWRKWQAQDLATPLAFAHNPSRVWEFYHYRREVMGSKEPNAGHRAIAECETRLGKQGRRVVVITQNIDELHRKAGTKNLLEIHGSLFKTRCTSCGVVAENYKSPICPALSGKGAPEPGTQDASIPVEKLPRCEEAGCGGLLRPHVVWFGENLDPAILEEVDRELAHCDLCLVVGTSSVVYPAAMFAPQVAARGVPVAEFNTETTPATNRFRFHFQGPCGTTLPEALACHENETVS

[4] = biological target: T1, Insulin-degrading enzyme (Homo sapiens, UniProt P14735); assay: recombinant IDE activation, cell-free – biochemical, fluorescence polarization, counter-screen for IDE activator project, dose response (AID 588681)
T1 sequence (P14735 whole entry): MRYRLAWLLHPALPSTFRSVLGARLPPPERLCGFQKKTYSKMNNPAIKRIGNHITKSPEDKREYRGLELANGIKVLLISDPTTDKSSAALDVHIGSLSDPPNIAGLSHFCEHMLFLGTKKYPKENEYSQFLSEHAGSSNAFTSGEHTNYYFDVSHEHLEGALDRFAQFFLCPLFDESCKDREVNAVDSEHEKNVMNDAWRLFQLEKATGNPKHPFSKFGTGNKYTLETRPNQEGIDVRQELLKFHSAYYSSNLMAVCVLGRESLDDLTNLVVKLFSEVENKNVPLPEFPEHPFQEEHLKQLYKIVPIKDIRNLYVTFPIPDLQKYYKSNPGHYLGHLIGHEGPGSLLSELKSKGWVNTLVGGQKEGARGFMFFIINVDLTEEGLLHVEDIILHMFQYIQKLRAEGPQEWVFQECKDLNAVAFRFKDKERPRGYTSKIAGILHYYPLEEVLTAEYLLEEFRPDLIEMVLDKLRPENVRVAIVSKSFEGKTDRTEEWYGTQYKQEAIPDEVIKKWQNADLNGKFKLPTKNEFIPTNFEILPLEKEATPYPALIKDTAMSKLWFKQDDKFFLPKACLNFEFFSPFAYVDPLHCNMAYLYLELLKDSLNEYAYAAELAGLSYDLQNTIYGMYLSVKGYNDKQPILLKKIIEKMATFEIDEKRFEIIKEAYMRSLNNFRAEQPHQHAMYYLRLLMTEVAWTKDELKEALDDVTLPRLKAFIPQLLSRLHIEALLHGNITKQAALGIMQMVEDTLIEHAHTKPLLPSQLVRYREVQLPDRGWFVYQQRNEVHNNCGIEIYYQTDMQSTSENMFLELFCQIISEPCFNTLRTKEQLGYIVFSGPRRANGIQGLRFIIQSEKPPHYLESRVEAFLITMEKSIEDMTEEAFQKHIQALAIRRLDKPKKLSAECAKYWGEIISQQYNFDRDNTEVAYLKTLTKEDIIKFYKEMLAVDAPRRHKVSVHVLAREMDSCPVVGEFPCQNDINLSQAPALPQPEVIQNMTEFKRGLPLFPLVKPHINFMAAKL

[5] = biological target: T2, Cytochrome P450 1A2 (Homo sapiens, UniProt P05177);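 also: PubChem cytochrome P450 panel assay, CYP1A2 panel member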
T2 sequence (P05177 whole entry): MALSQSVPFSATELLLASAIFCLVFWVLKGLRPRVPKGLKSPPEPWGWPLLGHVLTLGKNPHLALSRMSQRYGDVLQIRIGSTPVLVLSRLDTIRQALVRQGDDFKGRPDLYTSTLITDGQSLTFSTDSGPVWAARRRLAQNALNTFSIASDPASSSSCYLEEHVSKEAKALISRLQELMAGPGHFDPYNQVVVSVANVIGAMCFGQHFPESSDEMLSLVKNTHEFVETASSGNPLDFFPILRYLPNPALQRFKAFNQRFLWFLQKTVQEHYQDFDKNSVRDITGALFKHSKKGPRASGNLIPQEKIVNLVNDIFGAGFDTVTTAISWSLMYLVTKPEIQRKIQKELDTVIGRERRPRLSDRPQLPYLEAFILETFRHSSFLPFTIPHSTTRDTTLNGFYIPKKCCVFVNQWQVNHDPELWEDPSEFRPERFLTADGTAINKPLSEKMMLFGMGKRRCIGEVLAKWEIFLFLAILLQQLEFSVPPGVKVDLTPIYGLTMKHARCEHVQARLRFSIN

[6] = biological target: Voltage-gated inwardly rectifying potassium channel KCNH2 (Homo sapiens, UniProt Q12809); conditions: Potency;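 also: confirmatory quantitative high-throughput screen measuring inhibition of hERG channel activity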
Chain of Voltage-gated inwardly rectifying potassium channel KCNH2 (Q12809 whole entry): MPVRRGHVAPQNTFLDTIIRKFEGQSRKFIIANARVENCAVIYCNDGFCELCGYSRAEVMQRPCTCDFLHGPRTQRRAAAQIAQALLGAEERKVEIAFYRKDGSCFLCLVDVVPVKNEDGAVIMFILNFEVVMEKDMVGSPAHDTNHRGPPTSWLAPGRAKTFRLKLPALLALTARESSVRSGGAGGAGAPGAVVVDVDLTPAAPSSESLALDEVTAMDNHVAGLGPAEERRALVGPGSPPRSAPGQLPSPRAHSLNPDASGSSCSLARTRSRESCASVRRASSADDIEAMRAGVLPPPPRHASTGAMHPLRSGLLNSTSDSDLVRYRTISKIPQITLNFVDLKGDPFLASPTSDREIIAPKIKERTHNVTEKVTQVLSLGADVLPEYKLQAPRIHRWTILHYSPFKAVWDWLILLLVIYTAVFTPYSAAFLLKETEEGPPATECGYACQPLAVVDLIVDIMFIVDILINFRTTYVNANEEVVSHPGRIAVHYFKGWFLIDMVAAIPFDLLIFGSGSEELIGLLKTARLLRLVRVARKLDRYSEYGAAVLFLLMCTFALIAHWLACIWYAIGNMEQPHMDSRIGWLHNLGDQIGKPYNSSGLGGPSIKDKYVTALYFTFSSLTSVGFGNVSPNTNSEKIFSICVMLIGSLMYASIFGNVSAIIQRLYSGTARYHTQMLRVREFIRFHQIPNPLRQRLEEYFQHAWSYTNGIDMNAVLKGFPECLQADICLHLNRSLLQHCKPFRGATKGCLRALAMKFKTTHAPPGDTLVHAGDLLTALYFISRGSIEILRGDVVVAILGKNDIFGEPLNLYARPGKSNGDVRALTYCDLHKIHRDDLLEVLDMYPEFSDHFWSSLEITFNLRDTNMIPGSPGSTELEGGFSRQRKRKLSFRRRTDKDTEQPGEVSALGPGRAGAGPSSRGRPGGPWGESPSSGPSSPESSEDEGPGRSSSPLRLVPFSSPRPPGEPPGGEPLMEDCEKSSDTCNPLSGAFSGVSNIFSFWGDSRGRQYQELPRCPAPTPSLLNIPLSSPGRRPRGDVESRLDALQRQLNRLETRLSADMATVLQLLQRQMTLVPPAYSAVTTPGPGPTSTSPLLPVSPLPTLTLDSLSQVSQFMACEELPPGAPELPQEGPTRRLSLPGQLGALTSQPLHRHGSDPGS

[7] = Luminescence Cell-Based Dose Retest to Confirm Inhibitors of Cancer Stem Cells. [Related pubchem assays (depositor defined):AID2717, AID2721]; assay type: functional; conditions: Homo sapiens
[8] = system: HEK293; assay: optical interference in Abeta FP readout, dose response, artefact control for IDE activator project, biochemical, fluorescence polarization (AID 588442); assay type: functional, cell-based; conditions: Homo sapiens
[9] = biological target: T1, Insulin-degrading enzyme; assay: cellular IDE activation of Abeta substrate cleavage – fluorescence polarization, HEK cells, dose response (AID 588439); assay type: functional, cell-based
[10] = system: HEK293; assay: membrane integrity loss in HEK cells – cell-based, fluorescence, cytotoxicity control for IDE activator project, dose response (AID 588440); assay type: functional; conditions: Homo sapiens;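 also: cytotoxicity by LDH release measuring loss of membrane integrity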
[11] = biological target: T3, Sentrin-specific protease 6 (Homo sapiens, UniProt Q9GZR1); assay: SAR Analysis of small molecule inhibitors of Sentrin-specific protease 6 (SENP6) using a Luminescent assay. [Related pubchem assays (depositor defined):AID2582, AID2599]; assay type: functional
T3 sequence (Q9GZR1 whole entry): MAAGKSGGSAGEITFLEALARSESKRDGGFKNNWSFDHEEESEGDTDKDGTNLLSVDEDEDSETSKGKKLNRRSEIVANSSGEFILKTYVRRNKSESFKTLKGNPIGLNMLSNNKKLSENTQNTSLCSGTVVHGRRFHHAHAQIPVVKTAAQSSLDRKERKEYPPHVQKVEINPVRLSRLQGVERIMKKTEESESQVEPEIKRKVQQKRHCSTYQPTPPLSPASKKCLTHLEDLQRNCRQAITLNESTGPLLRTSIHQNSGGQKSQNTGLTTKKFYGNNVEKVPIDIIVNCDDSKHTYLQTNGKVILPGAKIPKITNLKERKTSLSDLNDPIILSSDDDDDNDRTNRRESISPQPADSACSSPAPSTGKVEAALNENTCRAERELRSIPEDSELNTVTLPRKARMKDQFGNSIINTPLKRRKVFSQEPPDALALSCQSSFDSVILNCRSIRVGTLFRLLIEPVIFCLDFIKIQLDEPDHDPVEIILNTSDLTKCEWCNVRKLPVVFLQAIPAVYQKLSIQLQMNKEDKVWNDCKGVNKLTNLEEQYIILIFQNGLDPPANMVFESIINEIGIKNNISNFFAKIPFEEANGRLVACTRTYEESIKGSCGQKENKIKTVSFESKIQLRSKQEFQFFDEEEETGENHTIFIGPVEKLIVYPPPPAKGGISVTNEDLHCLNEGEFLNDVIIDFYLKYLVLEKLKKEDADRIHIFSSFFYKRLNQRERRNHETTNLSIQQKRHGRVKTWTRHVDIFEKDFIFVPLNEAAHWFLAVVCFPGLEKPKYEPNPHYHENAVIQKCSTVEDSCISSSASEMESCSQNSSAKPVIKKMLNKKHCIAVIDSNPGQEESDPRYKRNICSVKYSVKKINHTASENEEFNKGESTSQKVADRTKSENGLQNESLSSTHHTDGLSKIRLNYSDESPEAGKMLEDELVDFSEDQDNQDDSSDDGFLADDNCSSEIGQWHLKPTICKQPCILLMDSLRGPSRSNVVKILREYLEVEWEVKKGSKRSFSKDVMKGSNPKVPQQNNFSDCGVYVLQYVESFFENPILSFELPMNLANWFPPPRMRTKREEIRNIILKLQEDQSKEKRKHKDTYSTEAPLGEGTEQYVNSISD

[12] = biological target: T4, Sentrin-specific protease 7 (Homo sapiens, UniProt Q9BQF6); assay: inhibition of human SENP7 cleavage activity – biochemical, luminescence, SAR follow-up (AID 504497); assay type: functional
T4 sequence (Q9BQF6 whole entry): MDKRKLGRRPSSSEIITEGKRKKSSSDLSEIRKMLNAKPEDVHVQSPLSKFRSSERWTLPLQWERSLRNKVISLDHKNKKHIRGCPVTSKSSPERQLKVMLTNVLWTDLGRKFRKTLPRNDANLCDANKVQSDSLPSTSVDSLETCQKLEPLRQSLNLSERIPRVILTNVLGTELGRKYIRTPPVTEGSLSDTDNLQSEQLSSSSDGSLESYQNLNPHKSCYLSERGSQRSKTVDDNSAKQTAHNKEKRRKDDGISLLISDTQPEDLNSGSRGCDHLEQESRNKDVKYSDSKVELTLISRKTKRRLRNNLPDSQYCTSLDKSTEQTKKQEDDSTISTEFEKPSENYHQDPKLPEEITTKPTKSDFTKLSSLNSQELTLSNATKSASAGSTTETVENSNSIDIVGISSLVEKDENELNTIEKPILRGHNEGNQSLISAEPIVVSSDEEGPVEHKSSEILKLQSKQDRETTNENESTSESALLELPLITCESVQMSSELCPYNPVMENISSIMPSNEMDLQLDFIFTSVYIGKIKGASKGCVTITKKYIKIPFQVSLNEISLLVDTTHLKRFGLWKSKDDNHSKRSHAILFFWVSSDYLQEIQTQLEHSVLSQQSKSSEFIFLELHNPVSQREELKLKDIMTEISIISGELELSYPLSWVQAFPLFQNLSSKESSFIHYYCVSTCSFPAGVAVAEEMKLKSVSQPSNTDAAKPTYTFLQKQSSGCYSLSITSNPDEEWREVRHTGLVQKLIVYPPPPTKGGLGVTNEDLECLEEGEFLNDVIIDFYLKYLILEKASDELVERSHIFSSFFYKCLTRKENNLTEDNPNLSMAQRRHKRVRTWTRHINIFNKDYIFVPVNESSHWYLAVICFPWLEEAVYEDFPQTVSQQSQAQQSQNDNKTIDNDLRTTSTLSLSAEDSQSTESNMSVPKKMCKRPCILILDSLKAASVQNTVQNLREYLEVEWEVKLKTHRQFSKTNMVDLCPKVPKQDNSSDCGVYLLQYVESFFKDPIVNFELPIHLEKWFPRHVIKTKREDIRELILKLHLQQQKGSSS

[13] = biological target: T5, Caspase-3 (Homo sapiens, UniProt P42574); assay: SAR Analysis of small molecule inhibitors of Sentrin-specific proteases (SENPs) using a Caspase-3 Selectivity assay. [Related pubchem assays (depositor defined):AID2540, AID2599, AID434973, AID489001]; assay type: functional
T5 sequence (P42574 whole entry): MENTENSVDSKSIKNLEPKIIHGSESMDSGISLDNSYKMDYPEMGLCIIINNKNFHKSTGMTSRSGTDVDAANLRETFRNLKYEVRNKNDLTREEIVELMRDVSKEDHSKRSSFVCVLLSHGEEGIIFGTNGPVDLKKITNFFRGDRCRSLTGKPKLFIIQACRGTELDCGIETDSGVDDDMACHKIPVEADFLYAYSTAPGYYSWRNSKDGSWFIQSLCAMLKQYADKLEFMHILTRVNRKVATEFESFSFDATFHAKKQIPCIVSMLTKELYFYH

[14] = biological target: T6, Sentrin-specific protease 8 (Homo sapiens, UniProt Q96LD8); assay: inhibition of human SENP8 cleavage activity – biochemical, luminescence, SAR follow-up (AID 504501); assay type: functional
T6 sequence (Q96LD8 whole entry): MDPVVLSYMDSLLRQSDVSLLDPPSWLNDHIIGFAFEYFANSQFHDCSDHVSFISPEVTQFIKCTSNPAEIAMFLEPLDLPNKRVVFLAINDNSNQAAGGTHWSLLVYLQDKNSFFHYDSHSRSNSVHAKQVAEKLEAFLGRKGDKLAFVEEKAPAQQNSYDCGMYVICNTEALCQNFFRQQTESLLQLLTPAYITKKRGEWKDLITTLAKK

Chain of Mu-type opioid receptor (P35372 whole entry): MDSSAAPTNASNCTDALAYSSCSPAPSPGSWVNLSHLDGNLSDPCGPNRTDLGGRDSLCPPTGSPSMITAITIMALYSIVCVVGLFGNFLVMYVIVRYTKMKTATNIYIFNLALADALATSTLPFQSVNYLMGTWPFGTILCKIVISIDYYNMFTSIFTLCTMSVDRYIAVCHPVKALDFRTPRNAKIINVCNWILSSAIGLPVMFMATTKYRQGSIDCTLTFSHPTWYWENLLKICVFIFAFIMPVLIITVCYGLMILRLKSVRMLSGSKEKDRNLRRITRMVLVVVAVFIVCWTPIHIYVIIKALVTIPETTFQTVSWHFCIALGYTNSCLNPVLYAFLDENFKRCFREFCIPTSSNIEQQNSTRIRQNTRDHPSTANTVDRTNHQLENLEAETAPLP

IC50 [11]	IC50 [12]	IC50 [13]	SMILES	EC50 [1]	EC50 [2]	AC50 [3]	EC50 [4]	AC50 [5]	AC50 [6]	AC50 [7]	EC50 [8]	EC50 [9]	IC50 [10]	IC50 [14]
			CCCCCCCC/C=C\CCCCCCCC(=O)NCCc1ccc(O)c(O)c1 [OLEOYL DOPAMINE]	92.3 µM (inactive)	0.957 µM (active)	18.1 µM (active)	> 54.7 µM (inactive)	20 µM (inconclusive)	35.5 µM (inconclusive)	2.59 µM (active)	> 54.7 µM (inactive)	8.94 µM (active)	30.5 µM (inactive)	
> 99 µM (inactive)	> 99 µM (inactive)	> 99 µM (inactive)	O=C(NCCc1ccccc1)C(=O)c1c[nH]c2ccccc12											> 99 µM (inactive)
